Test results reported in US6245778A, “1,6-naphthyridine anti-convulsants” (SmithKline Beecham p.l.c., priority 1997, dated 2001).
Counter-ions that a name gives are not always drawn.

System: electrically-induced seizures (tonic seizure threshold, CC50)
Experiment: Maximal electroshock seizure (MEST) threshold test
Assay type: in vivo
Details: mice, 10 mg/kg p.o., suspension in methyl cellulose, one hour post dosing

SMILES | increase in seizure threshold (CC50) compared to control [%]
COc1ccc(C(=O)Nc2cnc3c(c2)CN(C)CC3)cc1Br.Cl [Example 1, N-(6-Methyl-5,6,7,8-tetrahydro[1,6]naphthyridin-3-yl)-3-bromo-4-methoxybenzamide, monohydrochloride] | 177
CN1CCc2ncc(NC(=O)c3ccccc3)cc2C1 [Example 2, N-(6-Methyl-5,6,7,8-tetrahydro[1,6]naphthyridin-3-yl)-benzamide] | 97
CCOc1ccc(C(=O)Nc2cnc3c(c2)CN(C)CC3)cc1 [Example 5, N-(6-Methyl-5,6,7,8-tetra hydro[1,6]naphthyridin-3-yl)-4-ethoxybenzamide, monohydrochloride] | 106

Biological target: novel receptor obtainable from rat forebrain tissue
Experiment: Radioligand binding assay, displacement of [3H]-Compound A from rat forebrain tissue
Details: [3H]-Compound A 20 nM, room temperature, 1 hour
Description: The affinity of test compounds to the novel receptor site is assessed as follows. Whole forebrain tissue is obtained from rats. The tissue is first homogenised in buffer (usually 50 mM Tris/HCl, pH 7.4). The homogenised tissue is washed by centrifugation and resuspension in the same buffer, then stored at -70° C. until used. […] The final concentration of [3H]-Compound A in the mixture is usually 20 nM. The mixture is incubated at room temperature for 1 hour. [3H]-Compound A bound to the tissue is then separated from unbound [3H]-Compound A by filtration through Whatman GF/B glass fibre filters. The filters are then washed rapidly with ice-cold buffer. The amount of radioactivity bound to the tissue trapped on the filters is measured by addition of liquid scintillation cocktail to the filters followed by counting in a liquid scintillation counter. In order to determine the amount of "specific" binding of [3H]-Compound A, parallel assays are carried out as above in which [3H]-Compound A and tissue are incubated together in the presence of unlabelled Compound A (usually 3 μM). The amount of binding of [3H]-Compound A remaining in the presence of this unlabelled compound is defined as "non-specific" binding. This amount is subtracted from the total amount of [3H]-Compound A binding (i.e. that present in the absence of unlabelled compound) to obtain the amount of "specific" binding of [3H]-Compound A to the novel site. The affinity of the binding of test compounds to the novel site can be estimated by incubating together [3H]-Compound A and tissue in the presence of a range of concentrations of the compound to be tested. The decrease in the level of specific [3H]Compound A binding as a result of competition by increasing concentrations of the compound under test is plotted graphically, and non-linear regression analysis of the resultant curve is used to provide an estimate of compound affinity in terms of pKi value.

SMILES | in vitro binding affinity, pKi
COc1ccc(C(=O)Nc2cnc3c(c2)CN(C)CC3)cc1Br.Cl [Example 1, N-(6-Methyl-5,6,7,8-tetrahydro[1,6]naphthyridin-3-yl)-3-bromo-4-methoxybenzamide, monohydrochloride] | > 8.0
CCOc1ccc(C(=O)Nc2cnc3c(c2)CN(C)CC3)cc1Br [Example 11, N-(6-Methyl-5,6,7 ,8-tetrahydro[1,6]naphthyridin-3-yl)-3-bromo-4-ethoxybenzamide, monohydrochloride] | > 8.0
CCOc1ccc(C(=O)Nc2cnc3c(c2)CN(C)CC3)cc1[N+](=O)[O-].Cl [Example 20, N-(6-Methyl-5,6,7,8-tetrahydro[1,6]naphthyridin-3-yl)-4-ethoxy-3-nitrobenzamide hydrochloride] | > 8.0
COc1ccc(C(=O)Nc2cnc3c(c2)CN(C)CC3)cc1I.Cl [Example 28, N-(6-Methyl-5,6,7,8-tetrahydro[1,6]naphthyridin-3-yl)-3-iodo-4-methoxybenzamide hydrochloride] | > 8.0
COc1cc(C(C)(C)C)ccc1C(=O)Nc1cnc2c(c1)CN(C)CC2.Cl [Example 3, N-(6-Methyl-5,6,7,8-tetrahydro[1,6]naphthyridin-3-yl)-2-methoxy-4-t-butylbenzamide, monohydrochloride] | > 8.0
CCCOc1ccc(C(=O)Nc2cnc3c(c2)CN(C)CC3)cc1C#N [Example 30, N-(6-Methyl-5,6,7,8-tetrahydro[1,61naphthyridin-3yl)-3-cyano-4-n-propyloxybenzamide, hydrochloride] | > 8.0
CC(C)Oc1ccc(C(=O)Nc2cnc3c(c2)CN(C)CC3)cc1Br.Cl [Example 12, N-(6-Methyl-5,6,7,8-tetrahydro[1,6]naphthyridin-3-yl)-3-bromo-4-iso-propyloxybenzamide, monohydrochloride] | > 8.0
CN1CCc2ncc(NC(=O)c3ccc(C(C)(C)C)cc3)cc2C1 [Example 10, N-(6-Methyl-5,6,7,8-tetrahydrol[1,6]naphthyridin-3-yl)-4-t-butylbenzamide, monihydrochloride] | > 8.0
CC(C)Oc1ccc(C(=O)Nc2cnc3c(c2)CN(C)CC3)cc1Cl.Cl [Example 33, N-(6-Methyl-5,6,7,8-tetrahydro[1,6]naphthyridin-3-yl)-3-chloro-4-iso-propyloxybenzamide, hydrochloride] | > 8.0
CC(C)Oc1ccc(C(=O)Nc2cnc3c(c2)CN(C)CC3)cc1C(F)(F)F.Cl [Example 36, N-(6-Methyl-5,6,7,8-tetrahydro[1,6]naphthyridin-3-yl)-4-iso-propyloxy-3-trifluoromethylbenzamide, hydrochloride] | > 8.0
